The source of these data is US9868736B2, “Deubiquitinase inhibitors and methods for use of the same” (THE REGENTS OF THE UNIVERSITY OF MICHIGAN, priority 2013, dated 2018).

Data set [1] deals with T1, catalytic domain of Usp9x (Usp9xCD) (Homo sapiens, UniProt Q93008).
T1 construct: DNA corresponding to amino acids 1553-1960 of human Usp9x; His6-Smt3 (SUMO) fusion tag, ULP1-cleavable (N, cleaved yes); made in house; host or cells: E. coli
T1 sequence (Q93008 1553-1960): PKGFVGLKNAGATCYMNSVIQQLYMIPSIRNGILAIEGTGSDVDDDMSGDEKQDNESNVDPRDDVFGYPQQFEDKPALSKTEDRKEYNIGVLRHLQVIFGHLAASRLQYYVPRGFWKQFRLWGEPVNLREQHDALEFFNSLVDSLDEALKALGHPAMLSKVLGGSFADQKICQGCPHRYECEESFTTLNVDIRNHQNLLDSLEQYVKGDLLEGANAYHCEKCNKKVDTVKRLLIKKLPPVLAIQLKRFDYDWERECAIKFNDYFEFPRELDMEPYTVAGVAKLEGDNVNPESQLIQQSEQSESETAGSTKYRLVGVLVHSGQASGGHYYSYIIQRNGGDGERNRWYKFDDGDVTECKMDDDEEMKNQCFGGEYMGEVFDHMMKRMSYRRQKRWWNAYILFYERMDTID
In words: Usp9xCD Ub-AMC enzyme assay. The conditions noted are these: screen of 210 structures. The format is biochemical. How it is done: A series of chemical modifications were initiated to increase our structure activity relationship (SAR) analysis of inhibitors. […] The DNA was cloned into a ULP1-protease cleavable N-terminal His6-Smt3-fusion tag expression vector, derived from pET-28. Protein expression was induced at OD600 2.0, in TB media with Kanamycin overnight at 16° C. Cells were harvested and flash frozen before use. […] Protein was concentrated to roughly 20-40 mg/ml before aliquots were flash-frozen. All steps were performed in the presence of reducing agents, either BME, DTT, or TCEP.
Purified recombinant enzyme in buffer containing 2 mM DTT was buffer exchanged into 25 mM Tris-HCl, 50 mM NaCl and 1 mg/ml BSA using a spin column. […] IC50 values were estimated by integrating the slope of each reaction using GraphPad 6.
Two hundred and ten (210) novel chemical structures were screened for Usp9xCD inhibitory activity using this assay. […] Fluorescent scans were used to assess Usp9xCD inhibitory activity in this enzyme assay for all compounds of interest. Each assay was performed in duplicate and the linear region of each reaction curve was used to calculate IC50 values for Usp9xCD inhibition which are tabulated in Table 1.

Another data set has as its system Mcl-1, PARP. Put plainly: Mcl-1 level and PARP cleavage in treated tumor cells. It counts as cell-based.
A short description of the next data set: aqueous solubility. It counts as physicochemical.
The test system of a further data set is murine norovirus. In words: antiviral screen against murine norovirus in macrophages. The conditions noted are these: RAW cells, Swiss Webster and Balb/c bone marrow derived macrophages, FIG. 8. It counts as cell-based. The source says: G9 was screened in RAW cells, Swiss Webster bone marrow derived macrophages and Balb/c bone marrow derived macrophages, compared to vehicle (DMSO), prior compound WP1130 and compound VM030. […] VM030 has a structure of […]

In data set [2] the test system is Sindbis virus, Tulane virus, LaCrosse virus, Norwalk virus replicon. In words: antiviral screen against a variety of viruses. It counts as cell-based. The following applies: Vero (Sindbis), LLC-MK (Tulane), Be2-c (LaCrosse), Norwalk virus replicon-containing cells, FIG. 9.
The test system of data set [3] is vemurafenib sensitive and resistant A375 melanoma cells. In words: in vitro anti-tumor efficacy in A375 melanoma cells. The format is cell-based. The conditions noted are these: Homo sapiens, A-375. The source says: (§1) Similar results were obtained in A375R Usp5 KD cells treated with a MEK inhibitor.
Data set [4] deals with p53, pStat3, pERK, NOXA, PARP, Bid. In words: signalling and apoptosis markers in A375 cells. The format is cell-based.
Text: as §1

The next data set has as its target Usp9x (Homo sapiens, UniProt Q93008). In words: DUB activity (HA-Ub vinyl-sulfone labelling) in lysates of treated intact cells. The format is cell-based. On the set-up: endogenous in cells; host or cells: Z138 lymphoma, MM1.S/MM1.ST myeloma, primary PCL cells, A375 and vemurafenib-resistant A375 melanoma. The following applies: for inhibition at 5 µM: MM1.ST or PCL cells. On the procedure: In brief, control and treated cells were lysed by sonication in DUB assay buffer [50 mM Tris-HCl (pH 7.5), 5 mM MgCl2, 250 mM sucrose, 1 mM PMSF, 1× Roche proteinase inhibitory cocktail] and 20 μg of protein from the supernatant fraction (after a 14,000×g spin) were incubated with 200 nM HA-Ub vinyl-sulfone (Boston Biochem) in a final volume of 20 μl. After 90 min at 37° C., reactions were stopped with the addition of 5×-sample buffer. DUB activity was detected by SDS-PAGE resolution of the protein followed by nitrocellulose membrane transfer and immunoblotting with anti-HA.
The time required for G9-mediated Usp9x inhibition in intact multiple myeloma (MM1.S) cells and primary tumor cells from a patient with plasma cell leukemia (PCL) was investigated. MM1.ST (FIG. 1, left) or PCL (FIG. 1, right) cells were treated with 5 μM of compound for the time indicated before Usp9x activity was assessed as described above.

The mark [5] stands for this setting: Z138 lymphoma cells, 1.25, 2.5 and 5 μM, 4 hours.
The mark [6] stands for this setting: vemurafenib sensitive and resistant A375 cells.

Converted amounts (≈) assume the structure as drawn. “Also recorded” adds a separate entry of the source. Read-outs that look alike come from different tables or passages of the source.

Sequence of Usp9x (Q93008 whole entry): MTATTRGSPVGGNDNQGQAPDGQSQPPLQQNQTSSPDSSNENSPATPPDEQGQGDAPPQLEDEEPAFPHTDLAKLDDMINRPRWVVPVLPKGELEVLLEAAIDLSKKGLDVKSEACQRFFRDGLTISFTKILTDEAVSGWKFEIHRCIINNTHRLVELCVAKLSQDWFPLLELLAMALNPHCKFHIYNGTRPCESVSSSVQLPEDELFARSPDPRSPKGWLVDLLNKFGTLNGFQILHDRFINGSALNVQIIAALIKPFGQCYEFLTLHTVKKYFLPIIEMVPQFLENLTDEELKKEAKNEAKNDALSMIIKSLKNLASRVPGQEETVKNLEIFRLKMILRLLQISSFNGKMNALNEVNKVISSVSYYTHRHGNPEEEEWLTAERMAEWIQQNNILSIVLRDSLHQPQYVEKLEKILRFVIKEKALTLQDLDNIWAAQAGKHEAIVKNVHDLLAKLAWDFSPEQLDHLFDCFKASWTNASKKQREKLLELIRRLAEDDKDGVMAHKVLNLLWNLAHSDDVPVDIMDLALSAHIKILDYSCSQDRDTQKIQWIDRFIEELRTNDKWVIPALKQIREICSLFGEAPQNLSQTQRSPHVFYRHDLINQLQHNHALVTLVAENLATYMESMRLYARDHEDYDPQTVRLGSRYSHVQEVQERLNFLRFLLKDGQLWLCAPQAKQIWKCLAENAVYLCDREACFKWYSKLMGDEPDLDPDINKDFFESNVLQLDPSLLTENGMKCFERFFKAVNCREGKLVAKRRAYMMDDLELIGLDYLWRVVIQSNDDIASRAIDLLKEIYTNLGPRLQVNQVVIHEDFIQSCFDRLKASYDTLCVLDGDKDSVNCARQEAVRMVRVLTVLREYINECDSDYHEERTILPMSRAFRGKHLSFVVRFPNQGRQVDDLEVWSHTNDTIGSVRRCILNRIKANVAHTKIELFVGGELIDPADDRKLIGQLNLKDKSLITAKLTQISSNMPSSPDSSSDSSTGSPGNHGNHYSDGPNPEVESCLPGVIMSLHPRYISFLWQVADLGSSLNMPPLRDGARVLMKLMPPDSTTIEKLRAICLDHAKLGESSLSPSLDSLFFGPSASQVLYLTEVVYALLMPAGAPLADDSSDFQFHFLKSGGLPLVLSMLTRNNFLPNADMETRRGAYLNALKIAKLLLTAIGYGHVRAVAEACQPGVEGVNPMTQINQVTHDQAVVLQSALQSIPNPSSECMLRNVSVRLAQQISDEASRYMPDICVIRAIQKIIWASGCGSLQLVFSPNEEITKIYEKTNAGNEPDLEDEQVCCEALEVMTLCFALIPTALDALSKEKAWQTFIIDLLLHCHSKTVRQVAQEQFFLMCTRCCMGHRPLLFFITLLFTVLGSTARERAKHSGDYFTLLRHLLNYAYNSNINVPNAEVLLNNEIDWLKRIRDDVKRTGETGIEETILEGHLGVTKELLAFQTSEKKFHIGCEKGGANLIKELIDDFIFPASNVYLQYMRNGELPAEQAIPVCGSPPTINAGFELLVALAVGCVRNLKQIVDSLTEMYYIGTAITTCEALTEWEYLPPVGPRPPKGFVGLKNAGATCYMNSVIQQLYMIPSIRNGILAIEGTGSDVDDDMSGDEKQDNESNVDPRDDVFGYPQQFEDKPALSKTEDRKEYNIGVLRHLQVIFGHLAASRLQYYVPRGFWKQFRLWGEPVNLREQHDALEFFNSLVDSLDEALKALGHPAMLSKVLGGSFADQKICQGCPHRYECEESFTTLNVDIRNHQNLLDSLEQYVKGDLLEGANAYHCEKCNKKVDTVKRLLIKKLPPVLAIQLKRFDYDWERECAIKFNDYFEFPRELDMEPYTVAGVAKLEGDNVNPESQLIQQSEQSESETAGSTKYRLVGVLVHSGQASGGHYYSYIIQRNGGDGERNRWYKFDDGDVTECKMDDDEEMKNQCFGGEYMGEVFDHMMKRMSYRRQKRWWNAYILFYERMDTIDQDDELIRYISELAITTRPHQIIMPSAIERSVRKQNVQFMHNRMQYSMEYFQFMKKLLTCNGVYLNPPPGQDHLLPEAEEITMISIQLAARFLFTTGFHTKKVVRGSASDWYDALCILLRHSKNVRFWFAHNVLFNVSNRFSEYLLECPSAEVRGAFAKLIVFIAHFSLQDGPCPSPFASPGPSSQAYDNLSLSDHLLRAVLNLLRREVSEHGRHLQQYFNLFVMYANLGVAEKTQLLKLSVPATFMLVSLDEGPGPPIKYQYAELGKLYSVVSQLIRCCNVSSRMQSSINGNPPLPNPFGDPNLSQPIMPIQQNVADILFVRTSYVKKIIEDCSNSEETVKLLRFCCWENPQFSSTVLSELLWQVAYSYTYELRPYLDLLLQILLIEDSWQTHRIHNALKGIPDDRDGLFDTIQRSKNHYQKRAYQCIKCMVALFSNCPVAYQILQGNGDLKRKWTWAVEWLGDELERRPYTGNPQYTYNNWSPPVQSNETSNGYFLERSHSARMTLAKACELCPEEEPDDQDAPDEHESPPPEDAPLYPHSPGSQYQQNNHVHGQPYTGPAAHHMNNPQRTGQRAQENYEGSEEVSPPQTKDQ

Usually solubility stands for how much of the substance goes into solution per volume. A word on the IC50: it is the point on the concentration scale where inhibition reaches its midpoint. Usually inhibition stands for the drop in the measured response relative to a control, in per cent. Take `CCCC(NC(=O)/C(C#N)=C/c1nc(Cl)ccc1Cl)c1ccc(OCCN2CCOCC2)cc1` (stereo not drawn) [Compound G9, (E)-2-Cyano-3-(3,6-dichloropyridin-2-yl)-N-(1-(4-(2-morpholinoethoxy)phenyl)butyl)acrylamide]: in data set [1], the “Usp9xCD inhibitory activity compared to WP1130” value is listed as “superior inhibitors of Usp9xCD”. For the same molecule, the “caspase activity (PARP cleavage)” value with Mcl-1, PARP (MM1.ST cells, 5 μM) is listed as “activation of caspase activity”. Besides, in the data set on Mcl-1, PARP (MM1.ST or PCL cells, 5 μM), the Mcl-1 level result is recorded as “reduction in Mcl-1”. In the data set with Mcl-1, PARP (setting [5]), the “level of Mcl-1” value is “reduce the level of a downstream target of Usp9x”. Moreover, the “solubility compared with earlier inhibitor” value in “aqueous solubility” is on record as “improved solubility”. The amount in solution in the data set “aqueous solubility” (aqueous medium (not specified further)) (solubility) came to 19.8 µM (≈ 9.97 µg/mL). Besides, in the data set with murine norovirus, the “antiviral activity against murine norovirus” value is given as “exhibits antiviral activity against murine norovirus”. Also, the “antiviral activity against a variety of viruses” value in data set [2] is “mild to high antiviral activity; also recorded: antiviral activity against Sindbis virus and La Crosse virus”. The same molecule displayed an IC50 in data set [3] of 1000 nM. Moreover, the “pERK, pStat3 and NOXA levels” value in data set [4] (A375R cells) is “reduced pERK, pStat3 and elevated NOXA levels”. For the same molecule, the “PARP and Bid cleavage” value in data set [4] (A375R cells, combined with vemurafenib or 5FU) was “induced PARP and Bid cleavage”. Further, the p53 levels result in data set [4] (setting [6]) is recorded as “increased p53 levels”. In addition, the pStat3 inhibitory activity result in data set [4] (setting [6]) is “retained pStat3 inhibitory activity”. Moreover, the Usp9x activity entry on Usp9x (A375 melanoma cells and vemurafenib-resistant A375 variant) is given as “inhibition of Usp9x activity in either cell type; also recorded: reduced Usp5 (and Usp9x) activity in both cell types”. Further, the inhibition at 5 µM at Usp9x (5 minutes, read-out: Usp9x activity inhibition) was over 80%; on Usp9x (60 minute, read-out: Usp9x inhibition), 100%. In addition, at Usp9x (setting [5]), the “Usp9x activity in intact cells” value is on record as “able to inhibit Usp9x activity in intact cells”. For the same molecule, the Usp9x inhibition result on Usp9x (myeloma (MM1.S) cells, various concentrations, FIG. 10) is “inhibits Usp9x and Usp5”.
